The values below are quoted from earlier work in US8551975B1, “Hyaluronic acid in soft gel form” (Soft Gel Technologies, Inc., priority 2001, dated 2013).

On to Hyaluronic Acid [HA], for which the “half-life in the epidermis” value (epidermis, endogenous HA) is recorded as “less than one day”. For the same substance, the “half-life of an HA molecule” value (normally, endogenous HA synthesized and catabolized in tissues) is listed as 2-3 weeks.
